Results as given in US20090209548A1, “FORMULATION FOR STIMULATING HAIR GROWTH” (Pfizer Inc, priority 2004, published 2009).

Experiments:
[1] = In-vitro human cadaver skin permeation, Franz diffusion cell; format: in vitro ADME; settings: for Mean Percentage of Radioactivity Recovered at 24 Hours, Dermis / Mean Percentage of Radioactivity Recovered at 24 Hours, Epidermis / Mean Percentage of Radioactivity Recovered at 24 Hours, Receptor / Mean Percentage of Radioactivity Recovered at 24 Hours, Surface / Mean Percentage of Radioactivity Recovered at 24 Hours, Total: Compound 0.96% w/v
Experimental: Experimentally, the flux can be determined by measuring the amount of drug permeation into the receptor compartment of a Franz cell over time. The cumulative drug permeated per cm^2 is than plotted against time and the steady state permeation rate (flux, J) is calculated from the slope of the linear portion of the curve according to Fick's 1st law of diffusion.
In Examples 2-5 infra, the cumulative amount of Compound permeated through the skin as amount per surface area (μg/cm^2) was plotted against time (hours). Flux (μg/cm^2/hr) was determined by calculating the slope of the linear portion of the permeation profile. Drawing III depicts such a calculation. Typical variance in measured flux of 10 replicate samples is about 30-50%. However, if the formulation provides low flux of the Compound, indicating poor permeation through the skin, the variance could be much higher than the typical 30-50%.
This methodology utilizes a device known as the Franz Diffusion Cell. A typical device is depicted in Drawing II. The test is carried out using the following general methodology. A sample of human cadaver skin is inserted in to the area labeled as skin. The skin should be oriented so that the stratum corneum is facing the Donor Compartment and the dermis is facing the Receptor Compartment. The Receptor Compartment will be filled with a predefined solution (based on solubility of test agent). A dose of test agent, in a defined volume, is inserted into the Donor Compartment so that it may come in contact with the skin sample and potentially diffuse thru the skin into the Receptor Compartment. Samples of solution are then withdrawn from Receptor Compartment at defined time points and the concentration of test agent is determined. The amount of test agent permeated per cm^2 of skin is plotted versus time and the flux of the test agent is calculated as described above. The reader's attention is directed to Example 2, which provides a more detailed discussion of this test.
As with any testing method, the results can vary depending upon how the test is carried out. […] Thus, as used in this application including the claims, any flux determination should be carried by controlling the following parameters: • 1) Apparatus—The apparatus should be a Franz Diffusion Cell. Each cell should have a cell volume of 5.4 to 5.5 ml. Ten (10) cells should be utilized per formulation (i.e. both the test formulation and the reference formulation). As is standard in the field, the results are reported as the mean. • 2) Skin—Skin samples used for both the test formulation and the reference formulation should be human cadaver skin obtained from a single donor, who is […], between the ages of 50 and 75 and is obtained from the subjects back. […] The surface area of the skin samples should be 0.635 cm^2 (internal diameter of opening of 9 mm). The donor compartment should be maintained at room temperature (see Table A for specifics). • 3) Testing—Testing should be carried out for 24 hours. Sample should be withdrawn at the initiation of testing, and 2, 4, 12, 16, and 24 hours after initiation of testing. The sample volume should be 0.5 ml. The Compound should be present at identical concentrations in both the test formulation and the reference formulation (w/v for liquids and w/w for semi-solids). This concentration should be equal to that used in the final dosage form (i.e., what is being developed for eventual human application). A dose volume of 10 μl/0.635 cm^2 should be used. • 4) Receptor Solution—0.1% (w/v) Brij-98 in Dulbecco's phosphate buffered saline, pit 6.9 (KH2PO4 14.7 mM and Na2HPO4 80.9 mM). • 5) Barrier Integrity—The barrier integrity of human cadaver donor skin is assessed to ensure that changes in flux are attributed to the formulation versus a faulty skin barrier (e.g., cut, scrape, lesion, etc). […] The receptor fluid is assayed for these compounds. […]

hair growth cycle = settings: animal studies; topical; co-pending application 60/544,116; cited from earlier work
[2] = Table 2, vehicle 63.5:20:8:7.5% w/w EtOH/PG/CPE-215/Water
[3] = Table 2, vehicle 70:30% w/w EtOH/PG
[4] = Table 3, vehicle 60:20:20% w/w EtOH/PG/IPM
[5] = Table 3, vehicle 63.5:20:8:7.5% w/w EtOH/PG/CPE-215/Water
[6] = Table 4, vehicle 60:20:20% w/w EtOH/PG/IPM, skin 1.03-1.19 mm
[7] = Table 4, vehicle 70:20:10% w/w EtOH/PG/IPM, skin 1.03-1.19 mm

Cn1nc(O[C@@H]2c3cc(S(=O)(=O)c4cccc(O)c4)ccc3OC(C)(C)[C@@]2(C)O)ccc1=O [Compound, 6-[[(3S,4R)-3,4-dihydro-3-hydroxy-6-[(3-hydroxyphenyl)sulfonyl]-2,2,3-trimethyl-2H-1-benzopyran-4-yl]oxy]-2-methyl-3(2H)-pyridazinone]
Flux ([1]; Example 3, Compound 0.96% w/v in ethanol:propylene glycol:Cyclopentadecanolide:Water (63.5:20:8:7.5% w/w/w/w), skin 0.71-0.96 mm and 0.90-1.04 mm): 0.053±0.003 μg/cm^2/hr
Flux ([1]; Example 3, Compound 0.96% w/v in reference formulation (70% ethanol:30% propylene glycol w/w), skin 0.71-0.96 mm and 0.90-1.04 mm): 0.004±0.006 μg/cm^2/hr
Flux ([1]; Example 4, carrier ethanol:propylene glycol:Cyclopentadecanolide:Water (63.5:20:8:7.5% w/w/w/w), skin 0.71-0.96 mm and 0.90-1.04 mm): 0.022±0.007 μg/cm^2/hr
Flux ([1]; Example 4, carrier ethanol:propylene glycol:IPM (60:20:20% w/w/w), skin 0.71-0.96 mm and 0.90-1.04 mm): 0.017±0.008 μg/cm^2/hr
Flux ([1]; Example 5, carrier ethanol:propylene glycol:IPM (60:20:20% w/w/w), skin 1.03-1.19 mm): 0.011±0.003 μg/cm^2/hr
Flux ([1]; Example 5, carrier ethanol:propylene glycol:IPM (70:20:10% w/w/w), skin 1.03-1.19 mm): 0.007±0.003 μg/cm^2/hr
Flux ([1]; Example 6, Compound 1.86% w/v, carrier EtOH/PG/DMI (dimethyl isosorbide) (60:30:10% w/w)): 0.036±0.0336 μg/cm^2/hr
Flux ([1]; Example 6, Compound 1.86% w/v, carrier EtOH/PG/Miglyol 840 (50:30:20% w/w/w)): 0.11±0.007 μg/cm^2/hr
Flux ([1]; Example 6, Compound 1.86% w/v, carrier ethanol:propylene glycol:IPM (50:30:20% w/w/w)): 191±0.026 μg/cm^2/hr
Skin permeation as compared with the reference formulation ([1]; FIG. 4, carrier comprising a penetration enhancer (Cyclopentadecanolide) vs reference formulation): greatly enhanced
Mean Percentage of Radioactivity Recovered at 24 Hours, Dermis [1, 2]: 0.61%
Mean Percentage of Radioactivity Recovered at 24 Hours, Epidermis [1, 2]: 8.50%
Mean Percentage of Radioactivity Recovered at 24 Hours, Receptor [1, 2]: 0.56%
Mean Percentage of Radioactivity Recovered at 24 Hours, Surface [1, 2]: 84.77%
Mean Percentage of Radioactivity Recovered at 24 Hours, Total [1, 2]: 94.43%
Mean Percentage of Radioactivity Recovered at 24 Hours, Dermis [1, 3]: 0.06%
Mean Percentage of Radioactivity Recovered at 24 Hours, Epidermis [1, 3]: 2.53%
Mean Percentage of Radioactivity Recovered at 24 Hours, Receptor [1, 3]: 0.05%
Mean Percentage of Radioactivity Recovered at 24 Hours, Surface [1, 3]: 79.30%
Mean Percentage of Radioactivity Recovered at 24 Hours, Total [1, 3]: 81.94%
Mean Percentage of Radioactivity Recovered at 24 Hours, Dermis [1, 4]: 0.78%
Mean Percentage of Radioactivity Recovered at 24 Hours, Epidermis [1, 4]: 8.04%
Mean Percentage of Radioactivity Recovered at 24 Hours, Receptor [1, 4]: 0.14%
Mean Percentage of Radioactivity Recovered at 24 Hours, Surface [1, 4]: 79.28%
Mean Percentage of Radioactivity Recovered at 24 Hours, Total [1, 4]: 88.24%
Mean Percentage of Radioactivity Recovered at 24 Hours, Dermis [1, 5]: 0.76%
Mean Percentage of Radioactivity Recovered at 24 Hours, Epidermis [1, 5]: 8.71%
Mean Percentage of Radioactivity Recovered at 24 Hours, Receptor [1, 5]: 0.16%
Mean Percentage of Radioactivity Recovered at 24 Hours, Surface [1, 5]: 79.36%
Mean Percentage of Radioactivity Recovered at 24 Hours, Total [1, 5]: 88.99%
Mean Percentage of Radioactivity Recovered at 24 Hours, Dermis [1, 6]: 1.00%
Mean Percentage of Radioactivity Recovered at 24 Hours, Epidermis [1, 6]: 12.00%
Mean Percentage of Radioactivity Recovered at 24 Hours, Receptor [1, 6]: 0.07%
Mean Percentage of Radioactivity Recovered at 24 Hours, Surface [1, 6]: 73.00%
Mean Percentage of Radioactivity Recovered at 24 Hours, Total [1, 6]: 86.1%
Mean Percentage of Radioactivity Recovered at 24 Hours, Dermis [1, 7]: 1.04%
Mean Percentage of Radioactivity Recovered at 24 Hours, Epidermis [1, 7]: 12.27%
Mean Percentage of Radioactivity Recovered at 24 Hours, Receptor [1, 7]: 0.10%
Mean Percentage of Radioactivity Recovered at 24 Hours, Surface [1, 7]: 75.24%
Mean Percentage of Radioactivity Recovered at 24 Hours, Total [1, 7]: 88.66%
Effect on the hair growth cycle (hair growth cycle): alters the hair growth cycle by inducing anagen
